Assay type in all cases: cell-based, guinea pig (male Hartley)
The target in experiment [1] is T1, muscarinic receptor (ileum) (Cavia porcellus, UniProt H0W1Z3).
T1 construct: from tissue; host or cells: guinea-pig ileal segments (male Hartley)
Briefly: Anticholinergic action in guinea-pig ileum (antagonism of ACh response, Schild method). The settings on record: ileum, Tyrode solution, 32° C., test compound 5 min. before ACh; for Kb: read-out: Anticholinergic activity (pA2) Ileum (converted). On the procedure: (§1) 1. Anticholinergic action in guinea-pig ileum and atria Male Hartley guinea pigs were sacrificed by blowing on the head and bleeding.
(§2) Responses to acetyllchlloline (ACh) added cumulatively to the baths were isotonically recorded under a tension of 1 g. Dose-response curves of ACh were determined in the absence and presence of test compounds in various concentrations added to the baths 5 min. before ACh application.

Experiment [2] has as its target T2, muscarinic receptor (atrium, cardiac) (Cavia porcellus, UniProt H0VRN8).
T2 construct: from tissue; host or cells: guinea-pig isolated atria (male Hartley)
T2 sequence (H0VRN8 1-466): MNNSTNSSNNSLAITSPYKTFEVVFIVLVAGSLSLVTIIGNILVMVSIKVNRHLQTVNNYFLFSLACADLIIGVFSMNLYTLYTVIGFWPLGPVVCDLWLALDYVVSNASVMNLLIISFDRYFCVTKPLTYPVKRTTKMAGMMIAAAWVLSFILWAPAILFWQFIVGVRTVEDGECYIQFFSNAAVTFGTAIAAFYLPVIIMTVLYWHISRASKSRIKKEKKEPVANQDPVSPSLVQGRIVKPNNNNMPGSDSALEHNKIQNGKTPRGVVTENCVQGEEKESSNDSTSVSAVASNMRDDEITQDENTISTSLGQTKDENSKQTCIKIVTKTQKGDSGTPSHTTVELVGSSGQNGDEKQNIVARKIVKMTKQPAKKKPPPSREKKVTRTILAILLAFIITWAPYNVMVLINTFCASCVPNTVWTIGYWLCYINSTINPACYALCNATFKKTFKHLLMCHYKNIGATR
Briefly: Anticholinergic action in guinea-pig atria (antagonism of ACh response, Schild method). The note with it: for Kb: read-out: Anticholinergic activity (pA2) Atrium (converted). On the procedure:
as §1
The isolated atria were suspended under 0.5 g tension in organ baths containing Tyrode solution gassed with 95% O2 and 5% CO2 at 32° C.
Dose-response curves were obtained by cumulative addition of ACh and repeated in the presence of various concentrations of test compounds, allowing 10 min. equilibration time.
The affinity of test compounds were determined as described for ileum.

Experiment [3] relates to muscarinic receptor (ileum). Briefly: Anticholinergic action in guinea-pig ileum (antagonism of ACh response, Schild method). The settings on record: ileum versus heart. The procedure:
as §1, §2

Experiment [4] addresses T3, muscarinic receptor (trachea) (Cavia porcellus, UniProt H0W1Z3).
T3 construct: from tissue; host or cells: guinea-pig tracheal ring strips (male Hartley)
The experiment can be described thus: Anticholinergic action in guinea-pig trachea (antagonism of ACh response, Schild or van Rossum method). The note with it: Tyrode solution, 37° C., 10 minutes equilibration, read-out: Anticholinergic activity (pA2) Trachea (converted). On the procedure: 4. Anticholinergic action in guinea-pig trachea Male Hartley guinea-pigs were killed by blowing on the head and bleeding.
Ring strips of trachea were suspended in organ bath filled with Tyrode solution, kept at 37° C. and gassed with a mixture of 95% O2 and 5% CO2.
Responses to ACh were isometrically recorded under a tension of 1 g. Concentration-Response curves were obtained cumulative addition of ACh and repeated in the presence of various concentrations of test compounds, allowing 10 minutes equilibration time.

The mark [5] stands for this setting: Table 8, isolated atria, Tyrode solution, 32° C., 10 min. equilibration.

Like-named read-outs stand apart in the source and are kept apart here.

T1 sequence (H0W1Z3 1-590): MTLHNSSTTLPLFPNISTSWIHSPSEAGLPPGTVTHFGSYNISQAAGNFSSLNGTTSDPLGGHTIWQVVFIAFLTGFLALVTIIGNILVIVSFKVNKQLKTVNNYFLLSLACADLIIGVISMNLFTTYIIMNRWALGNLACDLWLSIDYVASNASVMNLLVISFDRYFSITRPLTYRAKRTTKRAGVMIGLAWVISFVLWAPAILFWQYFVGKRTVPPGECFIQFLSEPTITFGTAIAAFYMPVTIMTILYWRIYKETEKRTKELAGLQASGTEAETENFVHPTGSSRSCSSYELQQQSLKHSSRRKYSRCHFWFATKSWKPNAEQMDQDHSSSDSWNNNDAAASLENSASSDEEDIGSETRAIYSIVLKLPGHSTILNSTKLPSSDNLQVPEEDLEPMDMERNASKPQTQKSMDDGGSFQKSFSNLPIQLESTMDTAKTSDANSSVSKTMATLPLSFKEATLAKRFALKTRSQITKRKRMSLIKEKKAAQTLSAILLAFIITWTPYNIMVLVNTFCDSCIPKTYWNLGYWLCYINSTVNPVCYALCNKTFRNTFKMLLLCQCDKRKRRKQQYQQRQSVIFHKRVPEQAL
T3 sequence (H0W1Z3 1-590): as above

Consider `Cc1nccn1CCCC(C#N)(c1ccccc1)c1ccccc1` [Example 7], for which the Kb in experiment [1] is 1.12 nM; in experiment [2] (setting [5]), 6.17 nM.

As to `Cc1nccn1CCCCC(C#N)(c1ccccc1)c1ccccc1` [Example 8], the “Anticholinergic activity (pA2) Ileum” value in experiment [1] was 8.17. For the same compound, the “affinity for receptors in ileum as compared to receptors in heart” value (“affinity … compared to receptors in heart” for short) in experiment [3] turned out to be 10 times. Besides, the “Anticholinergic activity (pA2) Atrium” value in experiment [2] (setting [5]) worked out at 7.08.

As for `Cc1nccn1CCC(C(N)=O)(c1ccccc1)c1ccccc1` [Example 11, 4-(2-Methyl-1-imidazolyl)-2,2-diphenylbutylamide], the “affinity … compared to receptors in heart” value in experiment [3] is on record as 10 times.

Take `CC(C)c1nccn1CCC(C(N)=O)(c1ccccc1)c1ccccc1` [Example 14, 4-(2-isopropyl-1-imidazolyl)-2,2-diphenylbutylamide]: the Kb was 0.676 nM in experiment [1] and 18.6 nM in experiment [2] (setting [5]). The “affinity … compared to receptors in heart” value in experiment [3] is recorded as 10 times.

`Cc1n(CCC(C(N)=O)(c2ccccc2)c2ccccc2)cc[n+]1Cc1ccc(F)c(F)c1` [Example 44]: the Kb in experiment [4] is 5.25 nM; in experiment [2] (Table 9, atrium), 28.8 nM.

`Cc1n(CCC(C(N)=O)(c2ccccc2)c2ccccc2)cc[n+]1Cc1ccc(-c2ccccc2)cc1` [Example 50]: the Kb was 4.57 nM in experiment [4] and 30.2 nM in experiment [2] (Table 9, atrium).

As to `Cc1n(CCCCC(C(N)=O)(c2ccccc2)c2ccccc2)cc[n+]1Cc1ccccc1` [Example 51], the Kb in experiment [4] was 4.57 nM; in experiment [2] (Table 9, atrium), 20 nM.

Turning to `CCN(CC)CC#CCOC(=O)C(O)(c1ccccc1)C1CCCCC1` (stereo not shown) [Oxybutynin, reference compound], the Kb in experiment [2] (setting [5]) is 4.07 nM.

The record behind these values is patent US5932607A, “Imidazole derivatives and process for preparing the same” (Kyorin Pharmaceutical Co., Ltd., priority 1993, dated 1999).
